In patent US20220348584A1, “PERK INHIBITING INDOLINYL COMPOUNDS” (HiberCell, Inc., priority 2019, published 2022):
Like-named read-outs stand apart in the source and are kept apart here.

How the values were obtained:
[1] = biological target: T1, EIF2AK3 (PERK) catalytic domain (amino acids 536-1116) (Homo sapiens, UniProt Q9NZJ5); test: PERK In Vitro Activity Assay (Isolated), TR-FRET kinase assay; format: biochemical; details: isolated PERK enzyme, 1.5 μM ATP
T1 construct: EIF2AK3 (PERK) catalytic domain (amino acids 536-1116); purchased Invitrogen, Carlsbad, Calif
T1 sequence (Q9NZJ5 536-1116): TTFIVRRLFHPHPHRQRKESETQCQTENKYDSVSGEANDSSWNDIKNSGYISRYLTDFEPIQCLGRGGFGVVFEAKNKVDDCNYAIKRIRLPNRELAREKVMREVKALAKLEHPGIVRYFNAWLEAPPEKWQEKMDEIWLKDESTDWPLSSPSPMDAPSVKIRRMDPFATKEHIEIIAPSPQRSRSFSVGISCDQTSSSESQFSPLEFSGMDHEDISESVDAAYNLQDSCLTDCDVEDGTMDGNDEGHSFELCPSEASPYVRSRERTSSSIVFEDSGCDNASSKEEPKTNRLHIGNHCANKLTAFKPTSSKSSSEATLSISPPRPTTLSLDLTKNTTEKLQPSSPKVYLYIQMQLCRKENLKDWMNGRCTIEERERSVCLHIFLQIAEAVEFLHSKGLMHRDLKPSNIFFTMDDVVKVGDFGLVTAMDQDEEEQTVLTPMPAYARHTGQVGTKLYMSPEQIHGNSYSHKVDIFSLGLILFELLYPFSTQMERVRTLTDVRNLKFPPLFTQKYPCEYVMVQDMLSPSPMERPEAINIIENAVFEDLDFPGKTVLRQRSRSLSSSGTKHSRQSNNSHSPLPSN
Method: Perform TR-FRET kinase assays in the absence or presence of inhibitors in a reaction buffer consisting of 50 mM HEPES, pH 7.5, 10 mM MgCb, 1.0 mM EGTA, and 0.01% Brij-35, and 100-200 nM GFP-eIF2a substrate. […] Add test compound, initiate the reaction by addition of enzyme, and incubate at room temperature for 45 minutes. Stop the reaction by addition of EDTA to a final concentration of 10 mM, add Terbium-labelled phospho-eIF2a antibody at a final concentration of 2 nM, and incubate for 90 minutes. Monitor the resulting fluorescence in an EnVison® Multilabel reader (PerkinElmer, Waltham, Mass.).

HEK293-EGFP-eIF2a cells = test: PERK Cellular Assay (TR-FRET, GFP-eIF2α, tunicamycin-induced ER stress); format: cell-based, human; details: Homo sapiens, 2 h
Method: Stable cell lines were created in HEK293 cells using lentiviral particles harboring an expression vector for GFP-eIF2α. Cells were selected using puromycin and enriched using fluorescence activated cell sorting against GFP. HEK293-EGFP-eIF2a cells were plated at 5000 cells/well in 384-well assay plates and incubated overnight at 37° C., 5% CO2. Inhibitor compounds were added to the wells by Echo acoustic dispensing and incubated for 30 minutes at 37° C., 5% CO2 prior to induction of ER stress by addition of tunicamycin to […] for 2 hours. Cells were lysed and TR-FRET was measured in an EnVision plate reader (PerkinElmer). FRET ratio data was normalized to signal from lysates treated with DMSO vehicle control and plotted as percent inhibition against 10-point; 3-fold dilution series of inhibitors. IC50 values were calculated using 4-parameter logistical fitting in XLFit.

[2] = HEK293-EGFP-eIF2a cells, tunicamycin 2 hours, TR-FRET, read-out: Cellular eIF2α IC50

SMILES | IC50 ([1]; read-out: Biochemical IC50) [µM] | IC50 (HEK293-EGFP-eIF2a cells; [2]) [µM] | IC50 ([1]; Biochemical IC50 (μM)) [µM] | IC50 (HEK293-EGFP-eIF2a cells; read-out: Cellular eIF2α IC50 (μM)) [µM]
Cc1cccc(CC(=O)N2CCc3c2ccc(-c2cnc(N)c(C(=O)NC(C)C)c2)c3F)n1 [Example 29, 2-amino-5-(4-fluoro-1-(2-(6-methylpyridin-2-yl)acetyl)indolin-5-yl)-N-isopropylnicotinamide] | 0.051 to 0.1 | 0.501 to 1 |  | 
Cn1cc(-c2ccc3c(c2F)CCN3C(=O)C(F)(F)c2ccccc2)c2c(N)ncnc21 [Example 30, 1-(5-(4-amino-7-methyl-7H-pyrrolo[2,3-d]pyrimidin-5-yl)-4-fluoroindolin-1-yl)-2,2-difluoro-2-phenylethanone] | 0.026 to 0.05 | 0.101 to 0.25 |  | 
Cc1cc(C)n(CC(=O)N2CCc3c2ccc(-c2cn(C)c4ncnc(N)c24)c3F)n1 [Example 31, 1-(5-(4-amino-7-methyl-7H-pyrrolo[2,3-d]pyrimidin-5-yl)-4-fluoroindolin-1-yl)-2-(3,5-dimethyl-1H-pyrazol-1-yl)ethanone] |  |  | 0.001 to 0.025 | 0.001 to 0.025
Cc1nc(-c2ccc3c(c2)CCN3C(=O)Cc2cc(F)cc(C(F)(F)F)c2)c2c(N)ncc(Cl)n12 [Example 33, 1-(5-(8-amino-5-chloro-3-methylimidazo[1,5-a]pyrazin-1-yl)indolin-1-yl)-2-(3-fluoro-5-(trifluoromethyl)phenyl)ethanone] | 0.001 to 0.025 | 0.001 to 0.025 |  | 

Further lines, with some results ahead:

IC50 ([1]; read-out: Biochemical IC50) [µM] | SMILES | IC50 (HEK293-EGFP-eIF2a cells; [2]) [µM] | IC50 ([1]; Biochemical IC50 (μM)) [µM] | IC50 (HEK293-EGFP-eIF2a cells; read-out: Cellular eIF2α IC50 (μM)) [µM]
0.051 to 0.1 | Cc1cccc(CC(=O)N2CCc3c2ccc(-c2nc(C)n4c(C)c(C)nc(N)c24)c3F)n1 [Example 27, 1-(5-(8-amino-3,5,6-trimethylimidazo[1,5-a]pyrazin-1-yl)-4-fluoroindolin-1-yl)-2-(6-methylpyridin-2-yl)ethanone] | 0.251 to 0.5 |  | 
0.101 to 0.25 | Cn1cc(-c2ccc3c(c2F)CCN3C(=O)Nc2ccccc2)c2c(N)ncnc21 [Example 28, 5-(4-amino-7-methyl-7H-pyrrolo[2,3-d]pyrimidin-5-yl)-4-fluoro-N-phenylindoline-1-carboxamide] | 2 to 3 |  | 
0.001 to 0.025 | Cc1cc(C)n(CC(=O)N2CCc3c2ccc(-c2cn(C)c4nc(C)nc(N)c24)c3F)n1 [Example 32, 1-(5-(4-amino-2,7-dimethyl-7H-pyrrolo[2,3-d]pyrimidin-5-yl)-4-fluoroindolin-1-yl)-2-(3,5-dimethyl-1H-pyrazol-1-yl)ethanone] | 0.051 to 0.1 |  | 
